A short description of this data set: xn = mol fraction of the nth substance listed. The conditions noted are these: 298.15 K, 101 kPa, Liquid; for viscosity: Concentric cylinders viscometry; for mass density: Vibrating tube method.

Structures are written as SMILES. ± gives the expanded uncertainty stated by the source.

As usually defined, the viscosity is the resistance of a fluid to flow. One may read the mass density as mass per unit of volume. For the molecule `O=C(O)CO` [2-hydroxyethanoic acid] + C[N+](C)(C)CCO.[Cl-], where the note is “x2 = 0.25”, the viscosity is given as 311.21 ± 19 mPa·s and the mass density was found to be 1266.5 ± 0.9 kg/m3. For the same molecule, for the setting “x2 = 0.5”, the viscosity stood at 803.76 ± 74 mPa·s and the mass density is reported as 1197.6 ± 1 kg/m3.

Values taken from the NIST ThermoML archive (doi:10.1016/j.fluid.2014.10.044).
